Measurements: patent US10738041B2, “Ferroportin inhibitors” (Vifor (International) AG, priority 2015, dated 2020)

Experiments:
[1] = target: T1, human Fpn (Homo sapiens, UniProt Q9NP59); experiment: Biophysical Ferroportin-Hepcidin Binding Assay (fluorescence polarization); settings: average of multiple measurements; 1 μM human Fpn, 20 nM TMR-hepcidin; read-out: FP IC50
T1 construct: FLAG (C); made in house; host or cells: Pichia pastoris
T1 sequence (Q9NP59 1-571): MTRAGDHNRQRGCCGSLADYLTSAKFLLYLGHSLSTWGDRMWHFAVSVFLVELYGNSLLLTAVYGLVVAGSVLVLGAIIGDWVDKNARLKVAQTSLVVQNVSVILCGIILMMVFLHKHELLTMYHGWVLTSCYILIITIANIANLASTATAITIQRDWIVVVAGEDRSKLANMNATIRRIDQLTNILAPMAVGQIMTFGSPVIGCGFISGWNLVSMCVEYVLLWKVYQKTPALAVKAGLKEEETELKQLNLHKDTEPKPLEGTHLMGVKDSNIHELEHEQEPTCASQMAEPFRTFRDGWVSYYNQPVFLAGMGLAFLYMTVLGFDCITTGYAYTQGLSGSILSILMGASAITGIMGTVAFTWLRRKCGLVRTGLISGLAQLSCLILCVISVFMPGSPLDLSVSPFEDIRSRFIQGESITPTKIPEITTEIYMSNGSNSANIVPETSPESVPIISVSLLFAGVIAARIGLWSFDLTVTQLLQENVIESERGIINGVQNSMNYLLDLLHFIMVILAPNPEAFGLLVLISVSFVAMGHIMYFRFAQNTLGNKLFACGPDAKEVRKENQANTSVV
Procedure: This biophysical assay was developed to confirm inhibition of hepcidin binding to ferroportin (Fpn) more directly. Incubation of TMR-hepcidin with purified human Fpn isolated from Pichia pastoris yeast cells expressing human Fpn with a C-terminal FLAG affinity tag (Bonaccorsi di Patti, 2014) leads to increased fluorescence polarization (FP) of the TMR-hepcidin ligand. Small molecular weight Fpn inhibitors were tested for inhibition of binding of TMR-hepcidin to Fpn, as detected by dose-dependent decrease of the TMR FP signal, as described in detail below.
8 μl of serial dilutions of test compounds were added in duplicates to reach final Fpn and TMR-hepcidin concentrations of 1 μM and 20 nM, respectively. Plates were incubated for 90 minutes at room temperature and parallel (S) and perpendicular (P) fluorescence was measured in a Synergy H1 fluorescence reader (BioTek). FP values were calculated in mP according to the following formula.

[2] = target: T2, ferroportin (Fpn) (Mus musculus, UniProt Q9JHI9); experiment: Hepcidin Internalization Assay (J774); type: cell-based; settings: average of multiple measurements; inhibition of TMR-hepcidin (25 nM) internalization into J774 cells; read-out: J774 IC50
T2 construct: host or cells: J774 mouse macrophage cell line, Fe(III)-NTA induced
T2 sequence (Q9JHI9 1-570): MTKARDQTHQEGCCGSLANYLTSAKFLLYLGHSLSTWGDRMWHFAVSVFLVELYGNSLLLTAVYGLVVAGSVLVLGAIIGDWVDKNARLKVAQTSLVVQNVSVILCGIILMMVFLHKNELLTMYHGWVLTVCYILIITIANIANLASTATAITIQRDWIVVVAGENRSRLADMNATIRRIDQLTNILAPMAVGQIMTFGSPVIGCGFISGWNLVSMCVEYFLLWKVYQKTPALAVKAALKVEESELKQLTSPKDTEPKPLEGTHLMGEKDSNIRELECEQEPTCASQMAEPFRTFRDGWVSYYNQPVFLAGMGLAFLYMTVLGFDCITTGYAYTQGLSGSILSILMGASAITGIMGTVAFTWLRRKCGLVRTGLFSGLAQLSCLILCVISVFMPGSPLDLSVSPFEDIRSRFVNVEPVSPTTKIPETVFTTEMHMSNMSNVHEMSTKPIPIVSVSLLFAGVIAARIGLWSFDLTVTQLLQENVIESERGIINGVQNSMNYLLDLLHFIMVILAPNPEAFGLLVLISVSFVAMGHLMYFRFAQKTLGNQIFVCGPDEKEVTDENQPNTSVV
Source text: This cellular assay allows quantification of the binding of hepcidin to ferroportin (Fpn) through microscopic detection of internalization of a fluorescently labeled hepcidin into J774 cells. […] Binding of hepcidin to Fpn triggers internalization and degradation of both hepcidin and Fpn. However, the TMR (6-carboxytetramethylrhodamine) fluorophore attached to hepcidin remains associated with the cell after degradation of the hepcidin peptide backbone. Therefore, microscopic detection of ceH associated TMR fluorescence is a measure of hepcidin binding to Fpn and internalization of hepcidin and Fpn. If TMR-hepcidin is prevented from binding to Fpn, cellular TMR fluorescence remains low (Dürrenberger et al, 2013). The effect of small molecular weight Fpn inhibitor compounds in this assay was evaluated in vitro as described below.
J774 cells, harvested from ca. 80% confluent cultures, were plated at 8×10^5 cells/ml in complete medium (DMEM, 10% FBS, 1% Penicillin-Streptomycin) containing 200 μM Fe(III)NTA (nitrilotriacetic acid), 100 μl per well of 96 well MicroClear plates (Greiner; Cat. 655090) and grown at 37° C. with 5% CO2. After overnight incubation, cells were washed 3 times with pre-warmed DMEM w/o phenol red, 30 μl/well of DMEM w/o phenol red was added after the final wash and 10 μl/well of dilution series of test compounds were added in triplicates. […] Cells were incubated in a total volume of 50 μl at 37° C. with 5% CO2 for 2 hours, then Hoechst 33342 dye was added to a final concentration of 0.5 μg/ml to stain nuclei and further incubated for 10 min. at 37° C. with 5% CO2. Cells were washed 3 times with PBS and fixed in 100 μl of 4% paraformaldehyde in PBS for 15 min. at room temperature. After removal of the paraformaldehyde solution, cells were washed 3 times with PBS leaving 100 μl per well and the plates were sealed with foil plate seal. TMR (530-550 nm excitation/575-625 nm emission/400 ms exposure time) and Hoechst 33342 (360-370 nm excitation/420-460 nm emission/10 ms exposure time) fluorescence images were acquired using a ScanR plate imager (Olympus) with a 20× high NA objective. Four pictures were acquired per well and fluorescence channel covering ca. 1500 cells per well. The acquired image data was analysed with the ScanR image analysis software. Image analysis included detection of nuclei (Hoechst 33342 fluorescence), identification of cell-associated regions, application of a virtual channel and thresholding for rolling-ball-type background reduction, followed by application of the Sum(Mean) algorithm to measure the TMR fluorescence associated with cells as a quantitative measure for internalized TMR-hepcidin. IC50 values were calculated with the Sum(Mean) raw data using “log(inhibitor) vs. response” curve fitting of Prism 5 software (GraphPad Software Inc., version 5.02).

Row | SMILES | IC50 [1] | IC50 [2]
1 | CC(NC(=O)c1csc(CCNCc2nc3ccccc3[nH]2)n1)c1ccccn1 (stereo not drawn) [Example 80] | 2280 nM | 345 nM
2 | O=C(NCc1ccccc1OC(F)(F)F)c1csc(CCNCc2nc3ccccc3[nH]2)n1 [Example 72] | 931 nM | 1360 nM
3 | CN(C(=O)c1csc(CCNCc2nc3ccccc3[nH]2)n1)c1ccccc1 [Example 19] | 10200 nM | 10000 nM
4 | CN1CCOCC1CNC(=O)c1csc(CCNCc2nc3ccccc3[nH]2)n1 (stereo not drawn) [Example 41] | 12000 nM | 3980 nM
5 | O=C(NCc1ncc[nH]1)c1csc(CCNCc2nc3ccccc3[nH]2)n1 [Example 95] | 13000 nM | 7230 nM
6 | O=C1N[C@@H](CCN2CCCc3nc4ccccc4n3C2)C(=O)N1CCc1ncccc1F [Example 240] | 2670 nM | 2450 nM
7 | C=C(C)c1sc(CCNCc2nc3ccccc3[nH]2)nc1C(=O)NCc1ncccc1F [Example 177] | 15400 nM | 4200 nM
8 | O=C(NCc1ccccc1)c1csc(CCNCc2ncc[nH]2)n1 [Example 20] | 9610 nM | 9400 nM
9 | O=C(NCc1ncccc1CO)c1csc(CCNCc2nc3ccccc3[nH]2)n1 [Example 110] | 3420 nM | 1700 nM
10 | O=C(NCCc1ccccn1)c1csc(CCNCc2nc3ccccc3[nH]2)n1 [Example 76] | 5080 nM | 340 nM
11 | COc1ccc2[nH]c(CNCCc3nc(C(=O)NCc4ccccc4)cs3)nc2c1 [Example 50] | 1480 nM | 410 nM
12 | O=C(CCNCc1nc2ccccc2[nH]1)NCC(=O)NCc1ncccc1F [compound 172] | 3400 nM | 3930 nM
13 | O=C(NCc1cccnc1F)c1csc(CCNCc2nc3ccccc3[nH]2)n1 [Example 103] | 2520 nM | 2370 nM
14 | O=C(NCCc1ccccc1)c1csc(CCNCc2nc3ccccc3[nH]2)n1 [Example 78] | 4150 nM | 410 nM
15 | CN(C)c1ccccc1CNC(=O)c1csc(CCNCc2nc3ccccc3[nH]2)n1 [Example 70] | 1060 nM | 530 nM
16 | O=C(NCc1cccc(=O)[nH]1)c1csc(CCNCc2nc3ccccc3[nH]2)n1 [Example 47] | 3420 nM | 720 nM
17 | O=C(Nc1ncccc1F)c1csc(CCNCc2nc3ccccc3[nH]2)n1 [Example 77] | 2810 nM | 350 nM

Row | SMILES | IC50 [1] | IC50 [2]
18 | O=C(NCc1ncccc1F)[C@@H]1CCN(CCNCc2nc3ccccc3[nH]2)C1 [compound 204] | 1630 nM | 3300 nM
19 | CC(C)(CNCCc1nc2ccccc2[nH]1)c1nc(C(=O)NCc2ncccc2F)cs1 [Example 242] | 27800 nM | 8920 nM
20 | O=C(NCc1ncccc1F)c1csc(CNCCCc2nc3ccccc3[nH]2)n1 [Example 119] | 5300 nM | 164 nM
21 | O=C(NCc1ccccc1)c1csc(CCNCc2cn3ccccc3n2)n1 [Example 34] | 4290 nM | 360 nM
22 | O=C(NCc1ccccc1)c1csc(CCNCc2nc3cc(F)ccc3[nH]2)n1 [Example 31] | 940 nM | 1100 nM
23 | O=C(NCc1ccccc1)c1csc(CCNCc2ccccn2)n1 [Example 11] | 7830 nM | 20900 nM
24 | O=C(NCc1ncccc1F)c1cnn(CC2CN(CCc3nc4ccccc4[nH]3)C2)c1 [Example 192] | 49300 nM | 13600 nM
25 | Cc1c(C(=O)NCc2ncccc2F)ncn1CCNCCc1nc2ccccc2[nH]1 [Example 219] | 1100 nM | 2430 nM
26 | Cc1ccnc(CNC(=O)c2csc(CCNCc3nc4ccccc4[nH]3)n2)c1 [Example 106] | 4460 nM | 1520 nM
27 | O=C(CC(=O)NCc1ncccc1F)NCCNCCc1nc2ccccc2[nH]1 [compound 168] | 1360 nM | 884 nM
28 | O=C(NCc1ccccc1)c1ccc(CCNCc2nc3ccccc3[nH]2)cc1 [Example 66] | 53800 nM | 410 nM
29 | O=C(NCc1ncccc1F)c1cccc(CCNCCc2nc3ccccc3[nH]2)c1 [Example 235] | 295 nM | 910 nM
30 | O=C(NCc1ncc(F)cc1F)c1csc(CNCCCc2nc3ccccc3[nH]2)n1 [Example 124] | 3500 nM | 6330 nM
31 | COc1cc(CNC(=O)c2csc(CCNCc3nc4ccccc4[nH]3)n2)ccn1 [Example 104] | 1760 nM | 900 nM
32 | O=C(NCc1ccccc1)c1csc(CCNCc2nc3cc(OC(F)(F)F)ccc3[nH]2)n1 [Example 62] | 436 nM | 930 nM
33 | O=C(NCc1ncccc1F)c1csc(CCNCCCc2nc3ccccc3[nH]2)n1 [Example 125] | 3700 nM | 1660 nM
